Experimental data published in patent publication US20150141360A1, “BIOCIDAL COMPOSITIONS” (CEBEC GROUP LTD., priority 2012, published 2015).
Converted amounts (≈) assume the structure as drawn. Like-named read-outs stand apart in the source and are kept apart here.

Experiments:
[1] = system: isolated strains from food production environments; type: cell-based
From the text: In the early stages of these investigations, efforts were concentrated on two zoonotic pathogens namely verocytoxigenic Escherichia coli O157 and Salmonella species, along with the recently described powdered infant formula pathogen Cronobacter species. […] Some of the genera appeared to be more susceptible compared with others, as in the case of Cronobacter. Attempts to develop tolerant phenotypes were marginally successful and where this was generated, the phenotype was unstable. […] Highly-tolerant mutant phenotypes were obtained and these are currently being studied in detail, using a dedicated technical pipeline, described above. It was decided that it would be of interest to include the food-borne zoonotic pathogen Campylobacter and to evaluate its susceptibility/tolerance to the same panel compounds. Once again, it could be shown that Campylobacter was susceptible. However, as the panel of compounds used could be described as synthetic, the availability of C-Activ-12 presented the opportunity to re-evaluate the responses of these bacteria to this natural biocide. […] In the current project proposal, this inhibitory effect will be characterised in detail, to provide a means of understanding the mode of action. […] C-Activ-12 is a novel natural biocide. The formulation ingredients are FDA GRAS approved comprising organic acids and natural fruit extracted polyphenols. The broad spectrum activity of the formulation resulted it its inclusion in a University College Dublin Government funded independent study under the FIRM (see hereunder) research program. The program studies the effectiveness of products used to manage micro-organisms/pathogens prevalent in the food sector, comparing effectiveness & testing against isolated strains. […] The Irish Department of Agriculture and Food's Food Institutional Research Measure (FIRM) is funded under the National Development Plan 2007-2013. FIRM is the primary national funding mechanism for food research in third level colleges and research institutes. FIRM is a public good competitive programme whereby multi-disciplinary teams from two or more institutions usually carry out the research projects. Research outputs are communicated to industry by a dedicated dissemination team known as RELAY. FIRM aims to develop public good technologies that will underpin a competitive, innovative and sustainable food manufacturing and marketing sector. The programme is creating a base of knowledge and expertise in generic technologies that will support a modern, consumer-focused industry and build Ireland's capacity for R&D. A key output of the FIRM is highly trained young researchers at PhD and postdoctoral level, with specialist skills particularly relevant to the Irish food sector. The following pages provide an overview of the effectiveness of CeBeC's C-Activ-12 in killing micro-organisms. Standard testing protocols were first applied by AIT CBBR under British & European Food Grade Sanitiser Standard BS EN 1276, requiring a log 5 reduction from a log 7 to a log 2. The activity of C-Activ-12 highlighted a greater than log 6 reduction from a log 8. Based on the results under BS EN 1276, UCD added the product under the FIRM study whereby pathogens were isolated from food production environments. The rationale behind this approach is that most standards rely on ATCC & NCTC cultures which are more than often easier to kill than isolates.

[2] = system: Escherichia coli ATCC 25922; assay: Preliminary evaluation of bactericidal efficacy (5 min treatment, colony counts); type: cell-based; design: key: TNTC=To Numerous To Count; details: 5 min exposure to 0.5% v/v
Method: The compositions are suitable for use in the food and food processing industry. For rapid screening, a preliminary method allowed selection of the most efficient formulations. […] The composition of each formulation (0.5% v/v) was used blind to ensure no bias. The formulation was reviewed after each set of tests to improve the products composition and efficiency. Prototype formulations were prepared under aseptic conditions.
Typically, an overnight culture of bacteria strains were diluted 1:1000 in sterile hard water to a final density of approx 1×10^6 bacteria. A 1 ml volume of bacteria was treated for 5 minutes at room temperature with 500 μl of antimicrobial solutions. […] The treatment was ceased by the addition of 200 μl of the neutralising solution. All strains were serially diluted to 10^−5 in sterile peptone water and 100 μl were plated in duplicate on the appropriate plate and then incubated at 37° C. for 24 hours except Campylobacter jejuni and Enterococcus hirae. The appropriate controls were included in each test e.g. an unopened agar plate and a set of serially diluted, untreated bacteria. After mesophilic aerobic incubation (or mesophilic microaerophilic incubation for C. jejuni), the number of colonies was enumerated and compared to the untreated controls to determine if a Log order reduction was obtained.

[3] = 74 strains, unheaded column beside Stdev (presumably mean)

Row | SMILES | MBC [1, 3] | MIC [1, 3] | MBC Range ([1]; range over 74 strains) | MIC Range ([1]; range over 74 strains) | E. coli bacterial colony counts (average of two replicates), Bacterial Dilution 10^−1 [2] | E. coli bacterial colony counts (average of two replicates), Bacterial Dilution 10^−2 [2] | E. coli bacterial colony counts (average of two replicates), Bacterial Dilution 10^−3 [2] | E. coli bacterial colony counts (average of two replicates), Bacterial Dilution 10^−4 [2] | E. coli bacterial colony counts (average of two replicates), Bacterial Dilution 10^−5 [2] | E. coli bacterial colony counts (average of two replicates), Bacterial Dilution Neat [2] | other results
1 | O=C(O)c1ccccc1 [Benzoic Acid] |  |  |  |  |  |  |  |  |  |  | MBC [1]: 920.79 µg/mL (≈ 7540 µM); MBC Range [1]: 165 to 1320 µg/mL; MIC [1]: 810.51 µg/mL (≈ 6640 µM); MIC Range [1]: 247.5 to 1320 µg/mL
2 | O=C(O)/C=C/c1ccccc1 [Cininamic Acid] | 119.40 µg/mL (≈ 806 µM) | 95.12 µg/mL (≈ 642 µM) | 23.44 to 421.88 µg/mL | 23.44 to 140.65 µg/mL |  |  |  |  |  |  | 
3 | O=C(O)CC(O)C(=O)O (stereo not shown) [E3, MALIC ACID] |  |  |  |  | TNTC | TNTC | TNTC | TNTC | >61 | TNTC | 
4 | O=C(O)CC(O)(CC(=O)O)C(=O)O [E4, CITRIC ACID] |  |  |  |  | TNTC | TNTC | >159 | TNTC | 10 | TNTC | 
5 | O=C1O[C@H]([C@@H](O)CO)C(O)=C1O [E5, ASCORBIC ACID] |  |  |  |  | TNTC | TNTC | TNTC | TNTC | TNTC | TNTC | 
6 | C=CCc1ccc(O)c(OC)c1 [Eugenol] | 0.99 ul/ml | 0.86 ul/ml | 0.25-2 ul/ml | 0.25-2 ul/ml |  |  |  |  |  |  | 
7 | CC(C)=CCC/C(C)=C/CO [Geraniol] | 9.46 ul/ml | 8.29 ul/ml | 0.94-22.5 ul/ml | 0.94-15^ ul/ml |  |  |  |  |  |  | 
8 | Cc1ccc(C(C)C)c(O)c1 [Thymol] | 121.38 µg/mL (≈ 808 µM) | 85.73 µg/mL (≈ 571 µM) | 4.92 to 315 µg/mL | 19.69-315^ ug/ml |  |  |  |  |  |  | 
9 | O=C/C=C/c1ccccc1 [Trans-cinnaldeheyde] | 0.50 ul/ml | 0.43 ul/ml | 0.05-0.8 ul/ml | 0.2-0.8 ul/ml |  |  |  |  |  |  | 
10 | CC1=CC[C@@H](C(C)(C)O)CC1 [a-Terpineol] | 2.84 ul/ml | 2.43 ul/ml | 0.42-7.59 ul/ml | 0.53-7.59 ul/ml |  |  |  |  |  |  | 
